Results: PMC9421654, “Discovery of Substituted Di(pyridin-2-yl)-1,2,4-thiadiazol-5-amines as Novel Macrofilaricidal Compounds for the Treatment of Human Filarial Infections” (Journal of Medicinal Chemistry, 2022)
Like-named read-outs stand apart in the source and are kept apart here.

Legend:
[1] = system: O. gutturosa adult male worms; test: O. gutturosa adult worm ex vivo assay, MTT/formazan viability; assay type: cell-based, Onchocerca gutturosa; details: supplement, SD in brackets in the PDF table, read-out: O. gutturosa EC50 (uM) MTT viability inhibition
Method in brief: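 Adult male worms from naturally infected Gambian cattle were kept individually in MEM with 10% newborn calf serum at 37 °C, 5% CO2; four worms per concentration. Motility was scored 0-10 every 24 h to 120 h as a percentage of maximum, with ≥50% reduction versus untreated counted active. Afterwards, MTT (0.5 mg/mL, 30 min) formazan was read at 490 nm.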

[2] = Liver S9 metabolic stability assay, rat; assay type: in vitro ADME; details: 3 μM, 60 min
Method in brief: (§1)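 Rat and human liver S9 (0.75 and 1.2 mg/ml) with 1 mM NADPH, 0.5 mM UDPGA, 2.5 mM GSH, 0.05 mg/ml PAPS, 3µM substrate, 60 min at 37 °C in Tris/MgCl2 pH 7.4. Mouse microsomes 0.3 mg/mL, 1 mM NADPH, 3µM, 30 min, phosphate pH 7.4. LC-MS/MS, % remaining, triplicate.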

[3] = Liver S9 metabolic stability assay, human; assay type: in vitro ADME; details: 3 μM, 60 min
Method in brief: as §1

[4] = molecular target: T1, hERG potassium channels (KCNH2, expressed in HEK293 cells) (Homo sapiens, UniProt Q12809); test: hERG inhibition; assay type: cell-based
T1 construct: expressed in transfected cells
T1 sequence (Q12809 whole entry): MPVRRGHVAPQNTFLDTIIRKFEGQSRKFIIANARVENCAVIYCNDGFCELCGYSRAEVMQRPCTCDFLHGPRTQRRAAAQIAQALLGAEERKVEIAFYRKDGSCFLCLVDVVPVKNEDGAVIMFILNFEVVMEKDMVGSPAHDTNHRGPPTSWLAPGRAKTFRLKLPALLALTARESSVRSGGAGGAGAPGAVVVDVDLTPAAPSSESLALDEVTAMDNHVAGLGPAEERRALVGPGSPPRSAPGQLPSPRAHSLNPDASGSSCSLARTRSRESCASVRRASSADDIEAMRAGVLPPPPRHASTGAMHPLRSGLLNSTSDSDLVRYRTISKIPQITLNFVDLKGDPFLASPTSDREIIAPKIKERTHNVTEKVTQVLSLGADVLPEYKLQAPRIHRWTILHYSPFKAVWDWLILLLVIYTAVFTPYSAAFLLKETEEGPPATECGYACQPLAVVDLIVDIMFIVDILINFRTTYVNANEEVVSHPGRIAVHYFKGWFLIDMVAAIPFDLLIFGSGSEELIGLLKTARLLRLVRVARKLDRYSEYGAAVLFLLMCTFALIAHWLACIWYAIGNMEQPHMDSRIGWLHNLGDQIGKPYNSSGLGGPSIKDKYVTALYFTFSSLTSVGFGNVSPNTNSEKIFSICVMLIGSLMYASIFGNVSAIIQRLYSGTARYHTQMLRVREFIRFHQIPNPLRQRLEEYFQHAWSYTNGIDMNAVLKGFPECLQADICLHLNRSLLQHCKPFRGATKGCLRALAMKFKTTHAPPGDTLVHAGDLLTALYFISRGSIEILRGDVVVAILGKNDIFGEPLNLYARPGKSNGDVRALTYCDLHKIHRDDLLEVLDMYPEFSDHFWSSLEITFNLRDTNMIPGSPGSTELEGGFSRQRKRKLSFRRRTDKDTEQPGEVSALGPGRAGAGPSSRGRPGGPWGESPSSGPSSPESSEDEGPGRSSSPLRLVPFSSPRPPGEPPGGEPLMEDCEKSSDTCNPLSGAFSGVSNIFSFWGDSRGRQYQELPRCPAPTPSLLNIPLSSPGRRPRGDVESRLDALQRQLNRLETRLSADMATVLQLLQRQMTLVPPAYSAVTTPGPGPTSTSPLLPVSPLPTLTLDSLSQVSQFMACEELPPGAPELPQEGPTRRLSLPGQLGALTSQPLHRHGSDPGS

[5] = system: THLE-2 cells; test: THLE-2 cytotoxicity assay (ATP); details: for IC50: Homo sapiens; for THLE (cytotoxicity) ATP LC50: THLE-2 cell line
Method in brief: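 THLE-2 cells in supplemented LHC-8 medium were exposed for 24 or 72 h to final concentrations of 0.01–300 μM. Viability was read as ATP by CellTiter-Glo luminescence and normalized to DMSO vehicle. IC50 came from nonlinear regression of dose-response curves.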

[6] = THLE-2, 24 h, read-out: THLE IC50

For `Cc1cccnc1Nc1nc(-c2ccc(OC(C)C)cn2)ns1` [Compound 10, 3-(5-Isopropoxypyridin-2-yl)-N-(3-methylpyridin-2-yl)-1,2,4-thiadiazol-5-amine], the EC50 ([1]; Onchocerca gutturosa) was 0.01 µM, the EC50 [1] was 0.013 µM and the “Rat S9 metabolic stability” value [2] was 100 % remaining. For the same molecule, the “Human S9 metabolic stability” value [3] was 100 % remaining, the IC50 ([4]; supplement) was over 30000 nM and the IC50 [5, 6] was 38200 nM.
For `Cc1cccnc1Nc1nc(-c2ccc(OC3CC3)cn2)ns1` [Compound 11, 3-(5-Cyclopropoxypyridin-2-yl)-N-(3-methylpyridin-2-yl)-1,2,4-thiadiazol-5-amine], the EC50 ([1]; Onchocerca gutturosa) was 0.02 µM, the “Rat S9 metabolic stability” value [2] was 61 % remaining and the “Human S9 metabolic stability” value [3] was 76 % remaining. The IC50 ([4]; supplement) was over 30000 nM and the IC50 [5, 6] was over 200000 nM.
With `Cc1cccnc1Nc1nc(-c2ccc(OC3CC4(C3)CN(C3CC3)C4)cn2)ns1` [Compound 12, 3-[5-[(2-Cyclopropyl-2-azaspiro[3.3]heptan-6-yl)oxy]-2-pyridyl]-N-(3-methyl-2-pyridyl)-1,2,4-thiadiazol-5-mine] the EC50 ([1]; Onchocerca gutturosa) was 0.03 µM, the EC50 [1] was 0.033 µM and the “Rat S9 metabolic stability” value [2] was 53 % remaining. The “Human S9 metabolic stability” value [3] was 58 % remaining, the IC50 [4] was 203 nM and the IC50 ([4]; supplement) was 200 nM. It also gave an IC50 ([5]; THLE-2, read-out: THLE IC50) of 5200 nM.
In the case of `Cc1cccnc1Nc1nc(-c2ccc(OC3CCN(C4CC4)CC3)cn2)ns1` [Compound 19, 3-[5-[(1-Cyclopropyl-4-piperidyl)oxy]-2-pyridyl]-N-(3-methyl-2-pyridyl)-1,2,4-thiadiazol-5-amine], the EC50 ([1]; Onchocerca gutturosa) is reported as 0.19 µM, the “Rat S9 metabolic stability” value [2] is reported as 76 % remaining and the “Human S9 metabolic stability” value [3] is reported as 83 % remaining. It also gave an IC50 [4] of 3460 nM and an IC50 [5, 6] of 121000 nM.
For `CC(C)Oc1ccc(-c2nsc(Nc3ncccc3C(C)C)n2)nc1` [Compound 25, 3-(5-Isopropoxy-2-pyridyl)-N-(3-isopropyl-2-pyridyl)-1,2,4-thiadiazol-5-amine], the EC50 ([1]; Onchocerca gutturosa) was 0.54 µM, the “Rat S9 metabolic stability” value [2] was 82 % remaining and the “Human S9 metabolic stability” value [3] was 99 % remaining. The IC50 ([5]; THLE-2, read-out: THLE IC50) was 3200 nM.
For `Cc1ccnc(-c2nsc(Nc3ncccc3C(F)(F)F)n2)c1` [Compound 26, 3-(4-Methylpyridin-2-yl)-N-(3-(trifluoromethyl)pyridin-2-yl)-1,2,4-thiadiazol-5-amine], the EC50 ([1]; Onchocerca gutturosa) was 0.07 µM, the EC50 [1] was 0.069 µM and the “Rat S9 metabolic stability” value [2] was 61 % remaining. For the same molecule, the “Human S9 metabolic stability” value [3] was 56 % remaining, the IC50 ([4]; supplement) was over 30000 nM and the IC50 [5, 6] was 65600 nM.
For `CC(C)c1ccnc(-c2nsc(Nc3ncccc3C(F)(F)F)n2)c1` [Compound 27], the EC50 ([1]; Onchocerca gutturosa) was 0.07 µM, the EC50 [1] was 0.069 µM and the “Rat S9 metabolic stability” value [2] was 27 % remaining. The “Human S9 metabolic stability” value [3] was 45 % remaining.
In the case of `CNc1cccnc1Nc1nc(-c2ccc(OC(C)C)cn2)ns1` [Compound 30], the EC50 ([1]; Onchocerca gutturosa) is reported as 0.59 µM, the “Rat S9 metabolic stability” value [2] is reported as 73 % remaining and the “Human S9 metabolic stability” value [3] is reported as 86 % remaining. It also gave an IC50 ([4]; supplement) of 16000 nM and an IC50 ([5]; THLE-2, read-out: THLE IC50) of 17500 nM.
For `CC(C)Oc1ccc(-c2nsc(Nc3ncccc3N(C)C)n2)nc1` [Compound 31, N^2-(3-(5-Isopropoxypyridin-2-yl)-1,2,4-thiadiazol-5-yl)-N3,N3-dimethylpyridine-2,3-diamine], the EC50 ([1]; Onchocerca gutturosa) was 0.24 µM, the “Rat S9 metabolic stability” value [2] was 79 % remaining and the “Human S9 metabolic stability” value [3] was 86 % remaining. For the same molecule, the IC50 ([4]; supplement) was 8000 nM, the IC50 [5, 6] was 36000 nM and the “THLE (cytotoxicity) ATP LC50” value [5] was “did not exhibit significant cellular cytotoxity”.
With `CN(C)c1cccnc1Nc1nc(-c2ccc(OC3CC3)cn2)ns1` [Compound 32] the EC50 ([1]; Onchocerca gutturosa) was 0.56 µM, the “Rat S9 metabolic stability” value [2] was 91 % remaining and the “Human S9 metabolic stability” value [3] was 100 % remaining. It also gave an IC50 ([5]; THLE-2, read-out: THLE IC50) of 800 nM.
With `CC(C)c1ccnc(-c2nsc(Nc3cc(C(F)(F)F)ccn3)n2)c1` [Compound 35, 3-(4-Isopropylpyridin-2-yl)-N-(4-(trifluoromethyl)pyridin-2-yl)-1,2,4-thiadiazol-5-amine] the EC50 ([1]; Onchocerca gutturosa) was 0.15 µM, the “Rat S9 metabolic stability” value [2] was 45 % remaining and the “Human S9 metabolic stability” value [3] was 65 % remaining. For the same molecule, the IC50 ([5]; THLE-2, read-out: THLE IC50) was 2300 nM.
For `CC(=O)N(C)c1cccnc1Nc1nc(-c2ccc(OC(C)C)cn2)ns1` [Compound 47, N-(2-((3-(5-Isopropoxypyridin-2-yl)-1,2,4-thiadiazol-5-yl)amino)pyridin-3-yl)-N-methylacetamide], the EC50 ([1]; Onchocerca gutturosa) was 1.9 µM and the “THLE (cytotoxicity) ATP LC50” value [5] was “did not exhibit significant cellular cytotoxity”.
Molecule `CC(C)Oc1ccc(-c2nsc(Nc3ncccc3N(C)C(=O)C3CC3)n2)nc1` [Compound 50, N-(2-((3-(5-Isopropoxypyridin-2-yl)-1,2,4-thiadiazol-5-yl)amino)pyridin-3-yl)-N-methylcyclopropanecarboxamide] has an EC50 ([1]; Onchocerca gutturosa) of 2.3 µM and an IC50 ([5]; THLE-2, read-out: THLE IC50) of 7400 nM.
